Test system: FABP5 gene expression in melanoma cell lines (WM793 and derivatives)
Test: RT-PCR analysis via cycle limitation to assess effect of DAC treatment on FABP5 expression in melanoma cell lines
Type: cell-based, human
Protocol: Total RNA was extracted from untreated (−DAC) and treated (+DAC) cells and subjected to RT-PCR analysis via a cycle limitation method.
RNA extracts were pre-digested with DNase I prior to cDNA synthesis using the DNA-Free kit (Ambion). Single-stranded cDNA was synthesized from 1 μg total RNA using the ImProm-II Reverse Transcription kit (Promega). Recombinant RNasin Ribonuclease Inhibitor (20 U/20 μL reaction; Promega) was added to prevent RNase-mediated degradation. Two negative controls were also utilised, namely minus reverse transcriptase enzyme control and minus template control. Following inactivation of reverse transcriptase (RT) at 70° C. for 15 minutes, aliquots of generated single-stranded cDNA were subjected to polymerase chain reaction (PCR) amplification via a cycle limitation approach.
18 s was used as a control gene whose expression is unaffected by DAC treatment.
Primers used were as follows: […]

Nc1ncn([C@H]2C[C@H](O)[C@@H](CO)O2)c(=O)n1 [DAC, 5-aza-2′-deoxycytidine]
expression of the FABP5 gene after DAC treatment (derivative melanoma cell lines of WM793, treated (+DAC) vs untreated (-DAC), 18s control gene, FIG. 6): increased expression of the FABP5 gene
recovery of FABP5 expression by DAC treatment, aggressive derivative lines compared with parental line (more aggressive melanoma cell lines vs parental WM793, FIG. 6): recovered greater expression in these cells than in the parental melanoma cell line
